Where a name gives a salt, the structure may show the parent alone.
These compounds were tested on Plasmodium falciparum (assay: Antimicrobial activity against Plasmodium falciparum).
Format: functional, organism-based
With `COCCCOc1ccnc(C[S+]([O-])c2nc3ccccc3[nH]2)c1C` (stereo unspecified) [RABEPRAZOLE] the IC50 was 7 µM. `C=C(C)[C@@H]1CC[C@]2(C)CC[C@]3(C)[C@H](CC[C@@H]4[C@@]5(C)CC[C@H](O)C(C)(C)[C@@H]5CC[C@]43C)[C@@H]12` [LUPEOL] showed an IC50 of 28 µM. `CC(CCCN)Nc1ccnc2cc(Cl)ccc12` (stereo unspecified) [BIDESETHYL CHLOROQUINE] was tested, and the IC50 was 134 µM. `CN(C)CCCC1(c2ccc(F)cc2)OCc2cc(C#N)ccc21` (stereo unspecified) [CITALOPRAM] was tested, and the IC50 was 222 µM. In the case of `CCCCCCCCCCCC(O)(P(=O)(O)O)P(=O)(O)O`, the IC50 is reported as 1 µM. `CCN(CC)CCCC(C)Nc1ccncc1` (stereo unspecified) was tested, and the IC50 was 92 µM. `Nc1nc(N)c(-c2cccc(Cl)c2)c(CCCOC(=O)OCc2ccccc2)n1` gave an IC50 of 2 µM. `N#C/C(C(N)=O)=C1/C(=O)Nc2ccccc21` was tested, and the IC50 was 24 µM. In the case of `CC[C@H]1CN2CCc3c([nH]c4cc(O)ccc34)[C@@H]2C[C@@H]1C[C@H]1c2[nH]c3ccccc3c2CCN1C`, the IC50 is reported as 5 µM. In the case of `Nc1nc(N)c(-c2cccc(Cl)c2)c(CCCc2ccccc2)n1`, the IC50 is reported as 6 µM. With `CN(C)/N=N\C(=O)C1C2c3ccccc3C(c3ccccc32)C1C(=O)/N=N/N(C)C` (stereo unspecified) the IC50 was 33 µM. In the case of `CN(C)[C@@H]1C(O)=C(C(N)=O)C(=O)[C@@]2(O)C(O)=C3C(=O)c4c(O)cccc4[C@@](C)(O)[C@H]3[C@H](O)[C@@H]12` [OXYTETRACYCLINE], the IC50 is reported as 34 µM. `CN(C)[C@@H]1C(O)=C(C(=O)NCN2CCCC2)C(=O)[C@@]2(O)C(O)=C3C(=O)c4c(O)cccc4[C@@](C)(O)[C@H]3C[C@@H]12` [ROLITETRACYCLINE] showed an IC50 of 21 µM. `Cn1c2nc3ccccc3c-2cc2cc(F)ccc21` was tested, and the IC50 was 5 µM. With `C[C@H]1[C@@H](O)O[C@@H]2O[C@@]3(C)CC[C@H]4[C@H](C)CC[C@@H]1[C@@]24OO3` [ARTENIMOL] the IC50 was 1000 µM. For `O=C(NO)c1ccccc1` [BENZOHYDROXAMATE], the IC50 was 17 µM. With `CN(C)CCC=C1c2ccccc2CCc2ccccc21` [AMITRIPTYLINE] the IC50 was 558 µM. Work on `CC(C)CCNC(P(=O)(O)O)P(=O)(O)O` [(ISOPENTYLAMINO)METHYLENEDIPHOSPHONIC ACID] yielded an IC50 of 200 µM. In the case of `CCOC(=O)C1C2c3ccccc3C(c3ccccc32)C1C(=O)N(C)C` (stereo unspecified), the IC50 is reported as 33 µM. For `COc1ncnc(NS(=O)(=O)c2ccc(N)cc2)c1OC` [SULFADOXINE], the IC50 was 37 µM. `CCNCCCC(C)Nc1ccnc2cc(Cl)ccc12` (stereo unspecified) [DESETHYLCHLOROQUINE] gave an IC50 of 3 µM. Compound `C/C=C1/C[n+]2ccc3c([nH]c4ccccc43)c2C[C@@H]1C1=CN2c3ccccc3[C@]34CCN5C/C(=C/C)[C@H](C[C@H]53)[C@@H]([C@@H]1O)[C@H]24` [TETRADEHYDROLONGICAUDATINE] has an IC50 of 1 µM. With `CN(C)CCCN1c2ccccc2Sc2ccc(Cl)cc21` [CHLORPROMAZINE] the IC50 was 28 µM. Work on `CC1SC(=O)C(C)(C)C1=O` (stereo unspecified) [THIOLACTOMYCIN 10] yielded an IC50 of 46 µM. In the case of `CN(C)/C=N\C(=O)C1C2c3ccccc3C(c3ccccc32)C1C(=O)/N=C\N(C)C` (stereo unspecified), the IC50 is reported as 34 µM. Compound `CC[C@H]1OC(=O)[C@H](C)[C@@H](O[C@H]2C[C@@](C)(OC)[C@@H](O)[C@H](C)O2)[C@H](C)[C@@H](O[C@@H]2O[C@H](C)C[C@H](N(C)C)[C@H]2O)[C@](C)(O)C[C@@H](C)/C(=N\OCOCCOC)[C@H](C)[C@@H](O)[C@]1(C)O` [ROXITHROMYCIN] has an IC50 of 19 µM. `CN(C)Cc1ccc(Nc2c3ccc(Cl)cc3nc3cc(Cl)ccc23)cc1` was tested, and the IC50 was 1 µM. `CC(C)=CCCC(C)CC[C@@]1(C)SC(=O)C(C)=C1O` (stereo partly specified) [THIOLACTOMYCIN 5] gave an IC50 of 57 µM. `O=P(O)(O)C(NC1CCCCC1)P(=O)(O)O` [(CYCLOHEXYLAMINO)METHYLENEDIPHOSPHONIC ACID] showed an IC50 of 200 µM. Work on `O=C1Nc2ccccc2/C1=C\c1ccc(O)cc1` yielded an IC50 of 42 µM. With `CNc1ccc(Nc2c3ccccc3nc3cc(Cl)ccc23)cc1` the IC50 was 1 µM. For `CC(C)=CCC/C(C)=C/C[C@@]1(C)SC(=O)C(C)=C1O` [THIOLACTOMYCIN 4], the IC50 was 8 µM. For `CC(C)(C)c1cc(NC(P(=O)(O)O)P(=O)(O)O)cc(C(C)(C)C)c1`, the IC50 was 200 µM. Compound `CC1=C(O)[C@@](C)(Cc2cccc(C(=O)c3ccccc3)c2)SC1=O` [THIOLACTOMYCIN 8] has an IC50 of 16 µM. `CCCCCCCCCC[N+](C)(C)CCCS(=O)(=O)[O-]` gave an IC50 of 782 µM. For `O=C1Nc2ccccc2/C1=C/C(=O)c1ccc(Br)cc1`, the IC50 was 4 µM. Compound `COc1cc(/C(N)=N/O)cc(OC)c1OC` has an IC50 of 2010 µM. For `CC1C2c3ccccc3C(c3ccccc32)C1CN(C)C` (stereo unspecified), the IC50 was 21 µM. Work on `CC1=C(O)[C@@](C)(CCC(C)CCCC(C)C)SC1=O` (stereo partly specified) [THIOLACTOMYCIN 6] yielded an IC50 of 71 µM. In the case of `CCc1nc(N)nc(N)c1Cc1ccc(OCc2ccccc2)c(OCc2ccccc2)c1`, the IC50 is reported as 3 µM. `CN(C)C(=O)C1C2c3ccccc3C(c3ccccc32)C1C(=O)O` (stereo unspecified) gave an IC50 of 36 µM. Work on `NC1=NC(c2cccc(Oc3ccccc3)c2)N(c2cccc(Cl)c2)C(N)=N1` (stereo unspecified) yielded an IC50 of 4 µM. For `CC1C2c3ccccc3C(c3ccccc32)C1C(=O)Nc1ccncc1` (stereo unspecified), the IC50 was 500 µM. Compound `Nc1nc(N)c(-c2cccc(Cl)c2)c(CCCOC(=O)c2ccccc2)n1` has an IC50 of 8 µM. `CC(=O)C1C(=O)Nc2ccccc21` (stereo unspecified) was tested, and the IC50 was 29 µM. Work on `NC1=NC(c2cccc(OCCCOc3cc(Cl)c(Cl)cc3Cl)c2)N(c2cccc(Cl)c2)C(N)=N1` (stereo unspecified) yielded an IC50 of 9 µM. With `CCCCCCC(CCCC)C(O)(P(=O)(O)O)P(=O)(O)O` (stereo unspecified) the IC50 was 200 µM. Work on `CCCCCCC1(C)N=C(N)N=C(N)N1c1cccc(Cl)c1` (stereo unspecified) yielded an IC50 of 3 µM. `O=P(O)(O)C(NCCCc1ccccc1)P(=O)(O)O` gave an IC50 of 200 µM. In the case of `O=P(O)(O)C(NC1CCCCCCC1)P(=O)(O)O` [(CYCLOOCTYLAMINO)METHYLENEDIPHOSPHONIC ACID], the IC50 is reported as 200 µM. Compound `CCN(CC)Cc1cc(Nc2ccncc2)ccc1O` has an IC50 of 134 µM. In the case of `CN(C)C1C2c3ccccc3C(c3ccccc32)C1C(=O)O` (stereo unspecified), the IC50 is reported as 50 µM. `NC1=NC(c2ccc(Oc3ccccc3)cc2)N(c2ccc(Cl)cc2)C(N)=N1` (stereo unspecified) gave an IC50 of 7 µM. Compound `CCc1nc(N)nc(N)c1-c1cccc(Cl)c1` has an IC50 of 9 µM. Compound `O=C(NO)c1cccc(O)c1O` has an IC50 of 6 µM. `C=C[C@H]1CN2CC[C@H]1C[C@@H]2[C@@H](O)c1ccnc2ccc(OC)cc12` [QUINIDINE] gave an IC50 of 24 µM. `O=C1Cc2c([nH]c3ccc(Br)cc23)-c2ccccc2N1` [KENPAULLONE] gave an IC50 of 4 µM. With `C=C[C@H]1CN2CC[C@H]1C[C@@H]2[C@@H](O)c1ccnc2ccccc12` [CINCHONINE] the IC50 was 23 µM. Compound `NC1=NC(c2cccc(Oc3cc(Cl)cc(Cl)c3)c2)N(c2cccc(Cl)c2)C(N)=N1` (stereo unspecified) has an IC50 of 6 µM. For `O=P(O)(O)C(Nc1ccc(I)cn1)P(=O)(O)O`, the IC50 was 200 µM. For `O=C1NC(=O)/C(=C2/C(=O)Nc3ccccc32)S1`, the IC50 was 19 µM. `COc1cc(NC(C)CCCN)c2ncccc2c1` (stereo unspecified) [PRIMAQUINE] showed an IC50 of 105 µM. Work on `CC1(C)CCc2c(c3ccccc3c3nc4ccccc4nc23)O1` yielded an IC50 of 20 µM. For `CC(C)=CCC/C(C)=C/CC1(C)C(=O)S[C@@H](C)C1=O` (stereo partly specified) [THIOLACTOMYCIN 11], the IC50 was 30 µM. In the case of `Nc1ncc(Cc2ccc(OCc3ccccc3)cc2)c(N)n1`, the IC50 is reported as 21 µM. `Oc1ccc(Nc2ccnc3cc(Cl)ccc23)cc1CN1CCCC1` [AMOPYROQUINE] gave an IC50 of 30 µM. Compound `COc1cc(Cc2c(C)nc(N)nc2N)ccc1OCc1ccccc1` has an IC50 of 3 µM. For `CC1C2c3ccccc3C(c3ccccc32)C1C(=O)/N=N/N(C)C` (stereo unspecified), the IC50 was 51 µM. `CC1C2c3ccccc3C(c3ccccc32)C1C(=O)/N=C/N(C)C` (stereo unspecified) was tested, and the IC50 was 49 µM. `CC[C@H]1CN2CCc3c([nH]c4ccc(O)cc34)[C@@H]2C[C@@H]1C[C@H]1c2[nH]c3ccccc3c2CCN1C` showed an IC50 of 1 µM. In the case of `CN(C)CC1C2c3ccccc3C(c3ccccc32)C1CO` (stereo unspecified), the IC50 is reported as 35 µM. In the case of `N/C(=N\O)c1cc(O)c(O)c(O)c1`, the IC50 is reported as 38 µM. Work on `CS(=O)(=O)Nc1ccc(Nc2c3ccc(N)cc3nc3cc(N)ccc23)cc1` yielded an IC50 of 1 µM. Compound `NNC(=O)c1ccc(N2CCN(c3ccc(C(=O)NN)cc3)CC2)cc1` has an IC50 of 1 µM. With `C=C[C@@H]1CN2CC[C@@]3(CNc4c3ccc(O)c4[C@H]3CCCN3C)[C@@H]2C[C@@H]1C[C@H]1c2[nH]c3ccccc3c2CCN1C` [STRYCHNOPHYLLINE] the IC50 was 3 µM. Work on `CC(C)(C)C(=O)/C=C1\C(=O)Nc2ccccc21` yielded an IC50 of 44 µM. For `Nc1ncc(Cc2cccc(Oc3ccccc3)c2)c(N)n1`, the IC50 was 30 µM. Work on `CC1=C(O)[C@@](C)(CCC(C)C)SC1=O` [THIOLACTOMYCIN 3] yielded an IC50 of 259 µM. With `O=P(O)(O)C(Nc1cccnc1)P(=O)(O)O` the IC50 was 200 µM. `Nc1nc(N)c(-c2cccc(Cl)c2)c(CCCO)n1` gave an IC50 of 1 µM. `CCOC(=O)C1C2c3ccccc3C(c3ccccc32)C1N(C)C` (stereo unspecified) gave an IC50 of 30 µM. Compound `CN(C)C1CC2c3ccccc3C1c1ccccc12` (stereo unspecified) has an IC50 of 9 µM. For `CCCCCCOc1c(OC)cc(NC(C)CCCN)c2nc(OC)c(C)cc12` (stereo unspecified), the IC50 was 38 µM. With `CCOC(=O)/C(C#N)=C1/C(=O)Nc2ccccc21` the IC50 was 42 µM. Work on `COc1cc(NC(C)CCCN)c2nccc(C)c2c1OCc1cccc(C(F)(F)F)c1` (stereo unspecified) yielded an IC50 of 2 µM. For `c1ccc2c(c1)ccc1nc3ccccc3nc12` [BENZO[A]PHENAZINE], the IC50 was 20 µM. In the case of `COc1ccc2nc3cc(Cl)ccc3c(Nc3cc(CN4CCCC4)c(O)c(CN4CCCC4)c3)c2n1` [PYRONARIDINE], the IC50 is reported as 64 µM. `CC(C)=CC[C@@]1(C)SC(=O)C(C)=C1O` [THIOLACTOMYCIN 2] showed an IC50 of 100 µM. `CC(=O)OCCCc1nc(N)nc(N)c1-c1cccc(Cl)c1` gave an IC50 of 2 µM. With `CCCCCCCCCCOS(=O)(=O)O` [SODIUM DECYL SULFATE] the IC50 was 460 µM. `COc1cc(NC(C)CCCN)c2nccc(C)c2c1OCc1ccc(C(F)(F)F)cc1` (stereo unspecified) gave an IC50 of 3 µM. In the case of `CCc1nc(N)nc(N)c1-c1ccc(Cl)cc1` [PYRIMETHAMINE], the IC50 is reported as 100 µM. Compound `NC1=NC(c2cccc(OCc3ccccc3)c2)N(c2cccc(Cl)c2)C(N)=N1` (stereo unspecified) has an IC50 of 8 µM. With `COc1cc(C)c2c(Oc3cccc(C(F)(F)F)c3)c(OC)cc(NC(C)CCCN)c2n1` (stereo unspecified) [TAFENOQUINE] the IC50 was 147 µM. `NC1=NC(c2cccc(Oc3ccc(Cl)cc3)c2)N(c2ccc(Cl)cc2)C(N)=N1` (stereo unspecified) was tested, and the IC50 was 4 µM. For `C=C[C@@H]1CN2CC[C@@]3(CNc4cc(O)ccc43)[C@@H]2C[C@@H]1C[C@H]1c2[nH]c3ccccc3c2CCN1C` [ISOSTRYCHNOFOLINE], the IC50 was 6 µM. With `O=C1Nc2ccccc2/C1=C/C(=O)c1ccccc1` the IC50 was 4 µM. `Cn1c2nc3ccccc3c-2cc2c(Br)cccc21` gave an IC50 of 32 µM. `CC1C2c3ccccc3C(c3ccccc32)C1C(=O)Nc1ccccn1` (stereo unspecified) was tested, and the IC50 was 214 µM. `Oc1ccc(Nc2ccnc3cc(Cl)ccc23)cc1` was tested, and the IC50 was 19 µM. In the case of `CN(C)c1ccc(Nc2c3ccccc3nc3ccccc23)cc1`, the IC50 is reported as 1 µM.
